Earlier results as cited in patent publication US20030082215A1 (priority 1999, published 2003).
Where two headings read alike, the source gives them in different places.

In the case of `CC(C)OC(=O)C(C)(C)Oc1ccc(C(=O)c2ccc(Cl)cc2)cc1` [fenofibrate], the bioavailability (conventional gelatin capsule form, after meals) is listed as 89%, the bioavailability (conventional gelatin capsule form, on an empty stomach) is listed as 26% and the bioavailability (gelatin capsule containing a 300 mg dose, healthy volunteers) is listed as roughly 30%.
